Assay results from US20260125382A1, “COMPOUNDS FOR INHIBITING OR DEGRADING CDK2 AND/OR CDK9 AND MEDICINAL USE THEREOF” (KOREA RESEARCH INSTITUTE OF CHEMICAL TECHNOLOGY, priority 2022, published 2026).

What was measured:
[1] = molecular target: T1, CDK2 (Homo sapiens, UniProt P24941); assay: CDK protein degradation activity (Western blotting), CDK2; assay type: cell-based; conditions: MDA-MB-231 cells, 16 hours, Western blot
T1 construct: endogenous in cells; host or cells: MDA-MB-231
Summary of the method: (§1)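 Protein levels were read by Western blot densitometry, tubulin serving as loading reference. Beforehand, MDA-MB-231 cells had been exposed for 16 hours to 100 nM, 1 μM or 10 μM compound, DMSO as control.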

[2] = molecular target: T2, CDK9 (Homo sapiens, UniProt P50750); assay: CDK protein degradation activity (Western blotting), CDK9; assay type: cell-based; conditions: MDA-MB-231 cells, 16 hours, Western blot
T2 construct: endogenous in cells; host or cells: MDA-MB-231
Summary of the method: as §1

T2 sequence (P50750 whole entry): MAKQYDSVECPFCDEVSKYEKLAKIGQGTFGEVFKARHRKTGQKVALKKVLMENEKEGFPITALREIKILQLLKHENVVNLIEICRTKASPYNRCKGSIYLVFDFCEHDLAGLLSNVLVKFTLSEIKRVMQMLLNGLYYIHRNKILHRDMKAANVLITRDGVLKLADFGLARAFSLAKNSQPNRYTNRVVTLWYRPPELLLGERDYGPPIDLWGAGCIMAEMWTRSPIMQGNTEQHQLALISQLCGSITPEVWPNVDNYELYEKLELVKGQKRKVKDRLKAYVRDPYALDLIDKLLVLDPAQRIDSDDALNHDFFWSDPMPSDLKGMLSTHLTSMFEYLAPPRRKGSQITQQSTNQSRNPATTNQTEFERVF

Enzyme degradation CDK2 (% remaining) @ 0.1 μM [1]	Enzyme degradation CDK2 (% remaining) @ 1 μM [1]	Enzyme degradation CDK2 (% remaining) @ 10 μM [1]	Enzyme degradation CDK9 (% remaining) @ 0.1 μM [2]	Enzyme degradation CDK9 (% remaining) @ 1 μM [2]	Enzyme degradation CDK9 (% remaining) @ 10 μM [2]	Structure (SMILES)
0/0/0%	0/0/0%	0/0/0%	30%	20%	20%	O=C1CC[C@H](n2nnc3ccc(N4CCN(CCCC5CCN(c6ccc(Nc7ncnc8c7ncn8C7CC(NC(=O)Cc8ccccc8)C7)cc6)CC5)CC4)cc3c2=O)C(=O)N1 (stereo partly drawn) [Compound 349, N-((1s,3s)-3-(6-((4-(4-(3-(4-(3-(2,6-dioxopiperidin-3-yl)-4-oxo-3,4-dihydrobenzo[d][1,2,3]triazin-6-yl)piperazin-1-yl)propyl)piperidin-1-yl)phenyl)amino)-9H-purin-9-yl)cyclobutyl)-2-phenylacetamide]
20%	10%	10%	10/10/10%	10/10/10%	10/10/10%	O=C1CC[C@H](n2nnc3ccc(N4CCC(CCCN5CCN(c6ccc(Nc7ncnc8c7ncn8C7CC(NC(=O)Cc8ccccc8)C7)cc6)CC5)CC4)cc3c2=O)C(=O)N1 (stereo partly drawn) [Compound 351, N-((1s,3s)-3-(6-((4-(4-(3-(1-(3-(2,6-dioxopiperidin-3-yl)-4-oxo-3,4-dihydrobenzo[d][1,2,3]triazin-6-yl)piperidin-4-yl)propyl)piperazin-1-yl)phenyl)amino)-9H-purin-9-yl)cyclobutyl)-2-phenylacetamide]

Second part, the compound before the results:

Structure (SMILES)	Enzyme degradation CDK2 (% remaining) @ 0.1 μM [1]	Enzyme degradation CDK2 (% remaining) @ 1 μM [1]	Enzyme degradation CDK2 (% remaining) @ 10 μM [1]	Enzyme degradation CDK9 (% remaining) @ 0.1 μM [2]	Enzyme degradation CDK9 (% remaining) @ 1 μM [2]	Enzyme degradation CDK9 (% remaining) @ 10 μM [2]
O=C1CCC(N2C(=O)c3ccc(N4CCC(C(=O)N5CC(N6CCN(c7ccc(Nc8ncnc9c8ncn9[C@H]8C[C@@H](NC(=O)Cc9ccccc9)C8)cc7)CC6)C5)CC4)cc3C2=O)C(=O)N1 (stereo partly drawn) [Compound 350, N-((1s,3s)-3-(6-((4-(4-(1-(1-(2-(2,6-dioxopiperidin-3-yl)-1,3-dioxoisoindolin-5-yl)piperidin-4-carbonyl)azetidin-3-yl)piperazin-1-yl)phenyl)amino)-9H-purin-9-yl)cyclobutyl)-2-phenylacetamide]	30/30/30%	30/30/30%	30/30/30%	50%	30%	30%
O=C1CC[C@H](N2C(=O)c3ccc(N4CC(C(=O)N5CCC6(CC5)CC(N5CCN(c7ccc(Nc8ncnc9c8ncn9[C@H]8C[C@@H](NC(=O)Cc9ccccc9)C8)cc7)CC5)C6)C4)cc3C2=O)C(=O)N1 [Compound 352, N-((1s,3s)-3-(6-((4-(4-(7-(1-(2-(2,6-dioxopiperidin-3-yl)-1,3-dioxoisoindolin-5-yl)azetidin-3-carbonyl)-7-azaspiro[3.5]nonan-2-yl)piperazin-1-yl)phenyl)amino)-9H-purin-9-yl)cyclobutyl)-2-phenylacetamide]	90%	70%	70%	20/20/20%	20/20/20%	20/20/20%
O=C1CC[C@H](N2C(=O)c3ccc(N4CCC(C(=O)N5CCC6(CC5)CC(N5CCN(c7ccc(Nc8ncnc9c8ncn9C8CC(NC(=O)Cc9ccccc9)C8)cc7)CC5)C6)CC4)cc3C2=O)C(=O)N1 (stereo partly drawn) [Compound 353, N-((1s,3s)-3-(6-((4-(4-(7-(1-(2-(2,6-dioxopiperidin-3-yl)-1,3-dioxoisoindolin-5-yl)piperidin-4-carbonyl)-7-azaspiro[3.5]nonan-2-yl)piperazin-1-yl)phenyl)amino)-9H-purin-9-yl)cyclobutyl)-2-phenylacetamide]	70%	40%	40%	10/10/10%	10/10/10%	10/10/10%
